In PubChem BioAssay (NCI):
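Growth conditions: 96-well plates. Treatment: test compound, 48 hours, 5 concentrations. Analysis: linear interpolation between bracketing concentrations; unreached endpoints set to highest concentration. GI50 is the concentration that inhibits growth by half. TGI: concentration producing complete growth inhibition.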

Tests used:
Test in all cases: inhibition of tumour cell growth, NCI panel, 48 h
HOP-92 NSCLC = system: HOP-92 NSCLC
MDA-MB-231 breast = system: MDA-MB-231 breast
M14 melanoma = system: M14 melanoma
MALME-3M melanoma = system: MALME-3M melanoma
BT-549 breast = system: BT-549 breast
EKVX NSCLC = system: EKVX NSCLC
T-47D breast = system: T-47D breast
KM12 colon = system: KM12 colon
UACC-257 melanoma = system: UACC-257 melanoma
NCI-H226 lung = system: NCI-H226 lung

SMILES	GI50 (HOP-92 NSCLC) [µM]	TGI (HOP-92 NSCLC) [µM]	GI50 (MDA-MB-231 breast) [µM]	TGI (MDA-MB-231 breast) [µM]	GI50 (M14 melanoma) [µM]	TGI (M14 melanoma) [µM]	GI50 (MALME-3M melanoma) [µM]	TGI (MALME-3M melanoma) [µM]	GI50 (BT-549 breast) [µM]	TGI (BT-549 breast) [µM]	GI50 (EKVX NSCLC) [µM]	TGI (EKVX NSCLC) [µM]	GI50 (T-47D breast) [µM]	TGI (T-47D breast) [µM]	GI50 (KM12 colon) [µM]	TGI (KM12 colon) [µM]	GI50 (UACC-257 melanoma) [µM]	TGI (UACC-257 melanoma) [µM]	GI50 (NCI-H226 lung) [µM]	TGI (NCI-H226 lung) [µM]
O=S(=O)(NCCNc1cc(-c2cn(-c3ccccc3)nc2-c2cccc(O)c2)ccn1)c1ccc(Br)cc1	2	5.06	1.9	4.59	2.02	5.04	2.08	5.08	2.52	6.87	2.76	19.1	2.22	7.71	2.59	7.95	2.8	7.07	3.15	15
Cc1ccc(-n2c3c(c4c(CN)c(O)ccc42)CCc2ccccc2C3=O)cc1	2.31	8.11	14.8	29.2	5.5	18.9	4.58	17.9	10.7	31.8	12.4	28.5	22.8	50.1	13.2	29.1	18	34.1	18.2	36.6
Clc1nc(-c2ccccc2)nc(Cl)c1Cl		30.3		27.1		19.7		17.6		35.6		31.5		28.5		25.3		28.2		28.1
CCN(CC)CCOc1ccc(Cc2ccccc2)cc1	5.61	51.1	28.2	> 100	17.3	34.6	17.2	43.1	31.4	> 100	26.4	> 100	25.5	> 100	25.6	> 100	22.5	63	69.7	> 100
CCCC(=O)Nc1c(I)cc(I)c(CC(CC)C(=O)O)c1I (stereo not given)	> 100	> 100	> 100	> 100	> 100	> 100	> 100	> 100	> 100	> 100	> 100	> 100	> 100	> 100	> 100	> 100	> 100	> 100	> 100	> 100
COc1ccc(C[C@H]2NC[C@H](O)[C@H]2OC(C)=O)cc1		0.186		0.079		0.068		0.708		1.91		0.344		0.754		0.211		2.89		0.242
CN1CCN(c2ccc(-c3cccc(CN4CCOCC4)c3)cc2NC(=O)c2c[nH]c(=O)cc2C(F)(F)F)CC1	10.7	> 100	16.3	54.6	17.2	36.9	21.6	51.4	23.7	> 100	69.7	> 100	31.3	> 100	46.8	> 100	16.9	31.6	> 100	> 100
CC(C)=CCc1c(O)c(C(=O)CC(C)C)c(O)c2c(-c3ccccc3)cc(=O)oc12	1.04	4.84	8.26	22	11.5	> 50	10.8	33.9	7.31	> 50	11.5	> 50	11.3	42.1	12	> 50	6.52	30.2	16.4	> 50
CCCCCCC/C=C1\CCC(CN(C)C)C1=O (stereo not given)		33.7		8.72		23.6		25.3		28		22.8		26.7		13.9		29.4		48.4
COC1C(O)CC(OC2CC(OC3CC(O[C@@H]4C(=O)c5c(cc6cc(OC7CC(OC8CC(O)C(O)C(C)O8)C(O)C(C)O7)c(C)c(O)c6c5O)CC4[C@H](OC)[C@@H](O)C(C)=O)OC(C)C3O)OC(C)C2O)OC1C (stereo not given in full)	0.032	> 33.3	0.051	> 33.3	0.0202	3.91	0.0181	1.28	< 0.0292	12.5	0.014	> 33.3	0.0124	0.307	0.0124	> 33.3	0.0187	0.0923	0.0507	0.181
